Values joined by “and” are separate entries in the source; they are usually repeats but may differ in a detail not shown here. Equal values may be shown once. Read-outs that look alike come from different tables or passages of the source.
Key:
[1] = Kinetics in single dose IV toxicology study in dogs; format: in vivo; conditions: for mean CMAX in plasma: combined across gender; for AUC / Cmax: both sexes, dog, plasma; for Cmax: read-out: mean CMAX of Compound (B) in plasma
Description: The kinetics of Compound (A) were also evaluated as part of a single dose IV toxicology study. Compound (A) was given as an IV infusion (ca. 15 min) at doses of 0.5 and 5 mg/kg to 2 dogs/gender/dose. […] Blood samples were obtained over a period of 48 h after dosing, and plasma concentrations of Compound (A) and Compound (B) were determined using the LC/MS/MS assay with a standard curve range of 2-500 ng/mL for both analytes. […] T-HALF, MRT(INF), CLT, and VSS were not determined due to the limited sampling used in the study.

[2] = Toxicokinetics in single dose IV toxicology study in rats; format: in vivo
Description: The toxicokinetics of Compound (A) were evaluated in a single dose IV toxicology study in rats. […] Compound (A) was given as an IV infusion (ca. 3 min) at doses of 10, 25, and 30 mg/kg to 3 rats/gender/dose. Serial blood samples were obtained over a period of 24 h after dosing, and plasma concentrations of Compound (A) and Compound (B) were determined using an LC/MS/MS assay with a standard curve range of 2-500 ng/mL for both analytes. At a dose of 10, 25, and 30 mg/kg, the mean CMAX values of Compound (A) in male rats were 6422, 19066, and 24414 ng/mL, respectively; in female rats, the mean CMAX values were 8384, 20524, and 25054 ng/mL, respectively. […] For doses in a ratio of 1:2.5:3 proportion, the mean CMAX values of Compound (A) for males and females were in the ratio of 1:3.0:3.8 and 1:2.5:3.0, respectively, and the AUC values were in the ratio of 1:3.1:4.9 and 1:3.5:4.2, respectively. T-HALF, mean residence time over the time interval zero to infinity MRT(INF), total body clearance (CLT), and VSS were not determined due to the limited sampling used in the study.

[3] = Pharmacokinetics and absolute oral bioavailability of formulations in beagle dogs; format: in vivo, adult male beagle dogs; conditions: for CMAX, mean / TMAX, median / Cmax / Tmax: n = 3; for AUC(0-t) / Cmax / Tmax: male, beagle, dog, plasma; for AUC(0-t): T = 24 h; for Tmax: read-out: TMAX, median
Description: The absolute oral bioavailability of various formulations of Compound (A) in adult male beagle dogs (n=4) was evaluated. Compound (A) was given as a 10 min intravenous (IV) infusion (0.5 mg/kg), a buffered oral solution (2 mg/kg), and a buffered oral suspension (1 mg/kg).
The design was a single-dose, four-treatment, four-period, non-randomized, crossover design. Compound (A) was given to four adult male beagle dogs as a 10 min IV infusion (0.5 mg/kg), a buffered oral solution (2 mg/kg), or a buffered oral suspension (2 mg/kg). […] Upon reconstitution, the pH of the buffered suspension was about 8.0 and the strength was approximately 0.75 mg/mL. Due to cumulative toxicity the dose for the oral suspension scheduled during the third treatment period was reduced from 2 mg/kg to 1 mg/kg. Furthermore, the fourth treatment was not administered for lack of an evaluable formulation. The wash-out period between treatments was at least 7 days. Serial blood samples were collected over 24 h after dose administration and concentrations of Compound (A) and Compound (B) were determined using a LC/MS/MS assay with a standard curve range of 2-500 ng/mL for both analytes. The LC/MS/MS assay was the same as used in Example 1.
Analytical runs consisted of standard, quality control (QC), and study samples. The plasma volume used for analysis was 0.2 mL and the standard curve range was 2 to 500 ng/mL for both analytes, defining the lower limit of quantitation (LLQ) and upper-limit of quantitation (ULQ), respectively. If the predicted concentration of a study sample was less than that of the lowest standard, the value of the predicted concentration was reported as <LLQ. […]. If the predicted concentration was greater than that of the highest standard, the result of that analysis was reported as >ULQ and an appropriate volume of that sample was diluted with blank plasma and reanalyzed.
Four adult male dogs with venous access for drug administration and blood collection were selected for the study. The dogs were acclimated for at least one week prior to study initiation and were housed in individual steel cages. Animals were identified by a unique number and by a tag attached to the cage. The dogs were offered drinking water ad libitum, and fed once a day with standard canine diet except for an overnight (about 12 h) fast prior to dosing which was continued until 4 h after dosing. Fifteen (15) minutes prior to administration of the buffered oral suspension, the dogs were pretreated with pentagastrin (6 :g/kg; intramuscularly). Pentagastrmn pretreatment was used only for the oral suspension leg. The IV dose was administered as a constant-rate infusion over a period of 10 min using a calibrated infusion pump. The oral solution and suspension doses were administered by gavage and the gavage tubes were rinsed with 20 mL of water.
Serial blood samples (3 mL) were collected at predose, and 10 min (IV only; end-of-infusion), 15 min, 20 min (IV only), 30 min, and 45 min, and 1 h, 1.5 h, 2 h, 4 h, 6 h, 8 h, 12 h, and 24 h after dosing. Blood samples were collected into Vacutainer® tubes containing K3-EDTA as the anticoagulant and the contents of each tube were mixed by gently inverting the tube. The blood samples were then placed immediately on chipped ice. Plasma was obtained within 30 min of collection by centrifuging the tubes at approximately 4° C. and 2000×g for 5 min. Plasma samples were stored at or below −20° C. until analyzed for the concentrations Compound (A) and Compound (B).
The peak plasma concentration (CMAX) and the time to reach peak concentration (TMAX) were recorded directly from experimental observations. The area under the plasma concentration-time curve from time zero to T (AUC(0−T)), where T is the time of the last measurable plasma concentration, was calculated using the trapezoidal rule (See, M. Gibaldi, et al., Pharmacokinetics, 2nd ed., New York, N.Y., Marcel Decker, p. 445-91982). […]

[4] = IV infusion of Compound (A) 0.5 mg/kg
[5] = IV infusion of Compound (A) 5 mg/kg
[6] = female rats, IV infusion 10 mg/kg
[7] = female rats, IV infusion 25 mg/kg
[8] = female rats, IV infusion 30 mg/kg
[9] = male rats, IV infusion 10 mg/kg
[10] = male rats, IV infusion 25 mg/kg
[11] = male rats, IV infusion 30 mg/kg
[12] = dogs, IV Compound (A) 0.5 mg/kg
[13] = dogs, buffered oral solution of Compound (A) 2 mg/kg
[14] = two dogs with both IV and oral solution data

Compound: C/C(=C\c1csc(C)n1)[C@@H]1C[C@@H]2O[C@]2(C)CCC[C@H](C)[C@H](O)[C@@H](C)C(=O)C(C)(C)[C@@H](O)CC(=O)N1 (relative stereo) [Compound (A), [1S-[1R*,3R*(E),7R*,10S*,11R*,12R*,16S*]]-7,11-dihydroxy 8,8,10,12,16-pentamethyl-3-[1-methyl-2-(2-methyl-4-thiazolyl)ethenyl-4-aza-17-oxobicyclo[14.1.0]heptadecane-5,9-dione]
- mean AUC in plasma [1, 4]: 316 ng·h/mL
- mean CMAX in plasma [1, 4]: 218 ng/mL
- mean AUC in plasma [1, 5]: 6925 ng·h/mL
- mean CMAX in plasma [1, 5]: 5118 ng/mL
- mean CMAX [2, 6]: 8384 ng/mL
- mean area under the concentration vs. time curve (AUC) [2, 6]: 8156 ng·h/mL
- mean CMAX [2, 7]: 20524 ng/mL
- mean area under the concentration vs. time curve (AUC) [2, 7]: 28476 ng·h/mL
- mean CMAX [2, 8]: 25054 ng/mL
- mean area under the concentration vs. time curve (AUC) [2, 8]: 34563 ng·h/mL
- mean CMAX [2, 9]: 6422 ng/mL
- mean area under the concentration vs. time curve (AUC) [2, 9]: 3864 ng·h/mL
- mean CMAX [2, 10]: 19066 ng/mL
- mean area under the concentration vs. time curve (AUC) [2, 10]: 11980 ng·h/mL
- mean CMAX [2, 11]: 24414 ng/mL
- mean area under the concentration vs. time curve (AUC) [2, 11]: 19269 ng·h/mL
- CMAX, mean [3, 12]: 1120 (189) ng/mL
- TMAX, median [3, 12]: 10.2 min
- AUC(0−T), mean (SD) [3, 13]: 560 (159) h.ng./mL
- CMAX, mean [3, 13]: 365 (40.9) ng/mL
- TMAX, median [3, 13]: 30 min
- mean AUC after oral solution higher than dose-normalized mean AUC of oral toxicity study ([3]; dogs, oral solution 1.3 mL/kg vs 0.4 mL/kg): approximately 2 fold
- absolute oral bioavailability, individual dogs [3, 14]: 48.3% and 30.6%
- absolute oral bioavailability, mean value [3, 14]: 39.5%

Compound: CC1=NC(/C=C/[C@@H]2C[C@@H](O)[C@](C)(O)CCC[C@H](C)[C@H](O)[C@@H](C)C(=O)C(C)(C)[C@@H](O)CC(=O)N2)CS1 (some centres unmarked) [Compound (B)]
- AUC [1, 4]: 55 ng·h/mL
- Cmax [1, 4]: 95.6 ng/mL
- AUC [1, 5]: 1110 ng·h/mL
- Cmax [1, 5]: 984 ng/mL
- AUC ([2]; both sexes, rat, plasma, rats, IV Compound (A) 10-30 mg/kg, read-out: AUC of Compound (B) across gender and dose groups): 222 to 2000 ng·h/mL
- Cmax ([2]; both sexes, rat, plasma, rats, IV Compound (A) 10-30 mg/kg, read-out: CMAX of Compound (B) across gender and dose groups): 499 to 1790 ng/mL
- mean plasma concentration ([3]; dogs, IV Compound (A) 0.5 mg/kg, 0.17 h): 0 ng/mL
- mean plasma concentration ([3]; dogs, IV Compound (A) 0.5 mg/kg, 0.75 h): 0 ng/mL
- mean plasma concentration ([3]; dogs, IV Compound (A) 0.5 mg/kg, 1 h): 0 ng/mL
- mean plasma concentration ([3]; dogs, IV Compound (A) 0.5 mg/kg, 1.5 h): 0 ng/mL
- mean plasma concentration ([3]; dogs, IV Compound (A) 0.5 mg/kg, 2 h): 0 ng/mL
- mean plasma concentration ([3]; dogs, IV Compound (A) 0.5 mg/kg, 4 h): 0 ng/mL
- mean plasma concentration ([3]; dogs, IV Compound (A) 0.5 mg/kg, 6 h): 0 ng/mL
- mean plasma concentration ([3]; dogs, IV Compound (A) 0.5 mg/kg, 8 h): 0 ng/mL
- mean plasma concentration ([3]; dogs, IV Compound (A) 0.5 mg/kg, 12 h): 0 ng/mL
- mean plasma concentration ([3]; dogs, IV Compound (A) 0.5 mg/kg, 24 h): 0 ng/mL
- mean plasma concentration ([3]; dogs, buffered oral solution of Compound (A) 2 mg/kg, 0.25 h): 4.1 ng/mL
- mean plasma concentration ([3]; dogs, buffered oral solution of Compound (A) 2 mg/kg, 0.5 h): 21.3 ng/mL
- mean plasma concentration ([3]; dogs, buffered oral solution of Compound (A) 2 mg/kg, 0.75 h): 27.2 ng/mL
- mean plasma concentration ([3]; dogs, buffered oral solution of Compound (A) 2 mg/kg, 1 h): 23.8 ng/mL
- mean plasma concentration ([3]; dogs, buffered oral solution of Compound (A) 2 mg/kg, 2 h): 8.4 ng/mL
- mean plasma concentration ([3]; dogs, buffered oral solution of Compound (A) 2 mg/kg, 4 h): 2.4 ng/mL
- mean plasma concentration ([3]; dogs, buffered oral solution of Compound (A) 2 mg/kg, 6 h): 0.8 ng/mL
- mean plasma concentration ([3]; dogs, buffered oral solution of Compound (A) 2 mg/kg, 8 h): 0 ng/mL
- mean plasma concentration ([3]; dogs, buffered oral solution of Compound (A) 2 mg/kg, 12 h): 0 ng/mL
- mean plasma concentration ([3]; dogs, buffered oral solution of Compound (A) 2 mg/kg, 24 h): 0 ng/mL
- AUC(0-t) [3, 12]: 0.69 ng·h/mL
- Cmax [3, 12]: 3.8 ng/mL
- Tmax [3, 12]: 10.2 min
- AUC(0-t) [3, 13]: 45.2 ng·h/mL
- Cmax [3, 13]: 27.2 ng/mL
- Tmax [3, 13]: 45 min
